Results reported in US5919756A, “Amides” (Eli Lilly and Company, priority 1997, dated 1999).
Converted amounts (≈) assume the structure as drawn.

Tests used:
Assay type in all cases: cell-based
[1] = system: Staphylococcus haemolyticus 415; test: Broth micro-dilution MIC, SH 415; conditions: unit assumed
Method: (§1) The antibacterial efficacy of the present compounds is illustrated in TABLE 2. The minimal inhibitory concentrations (MICs) were determined using a standard broth micro-dilution assay.

[2] = system: Staphylococcus aureus 447; test: Broth micro-dilution MIC, SA 447; conditions: unit assumed
Method: as §1

[3] = system: Staphylococcus aureus 489; test: Broth micro-dilution MIC, SA 489; conditions: unit assumed
Method: as §1

[4] = system: Enterococcus, Sensitive (4-6 isolates); test: Enterococcus screen, broth micro-dilution MIC, sensitive isolates; set-up: unit not given here; conditions: mean of 4-6 isolates
Method: as §1

[5] = system: Staphylococcus epidermis 270; test: Broth micro-dilution MIC, SE 270; conditions: unit assumed
Method: as §1

[6] = system: Enterococcus, Resistant (4-6 isolates); test: Enterococcus screen, broth micro-dilution MIC, resistant isolates; set-up: unit not given here; conditions: mean of 4-6 isolates
Method: as §1

[7] = system: Streptococcus pneumoniae P1; test: Broth micro-dilution MIC, S PN P1; conditions: unit assumed
Method: as §1

[8] = system: Staphylococcus aureus 446; test: Broth micro-dilution MIC, SA 446; conditions: unit assumed
Method: as §1

[9] = system: Staphylococcus haemolyticus 105; test: Broth micro-dilution MIC, SH 105; conditions: unit assumed
Method: as §1

[10] = system: Streptococcus pyogenes 203; test: Broth micro-dilution MIC, S PY 203; conditions: unit assumed
Method: as §1

Molecule	MIC, SH415 [1] [µg/mL]	MIC, SA 447 [2] [µg/mL]	MIC, SA 489 [3] [µg/mL]	Minimum Inhibitory Concentrations (MICs), Mean Values of 4-6 Isolates, Sensitive [4]	MIC, SE270 [5] [µg/mL]	Minimum Inhibitory Concentrations (MICs), Mean Values of 4-6 Isolates, Resistant [6]	MIC, S PN P1 [7] [µg/mL]	MIC, SA 446 [8] [µg/mL]	MIC, SH105 [9] [µg/mL]	MIC, S PY 203 [10] [µg/mL]
CNC(CC(C)C)C(=O)NC1C(=O)NC(CC(N)=O)C(=O)NC2C(=O)NC3C(=O)NC(C(=O)NC(C(=O)NCc4ccccc4)c4cc(O)cc(O)c4-c4cc3ccc4O)C(OC3CC(C)(N)C(O)C(C)O3)c3ccc(c(Cl)c3)Oc3cc2cc(c3OC2OC(CO)C(O)C(O)C2OC2CC(C)(NCc3ccc(-c4ccccc4)cc3)C(O)C(C)O2)Oc2ccc(cc2Cl)C1O (stereo not drawn) [Example 10, N^4-(4-phenylbenzyl)A82846B, benzylamide]	4 (≈ 2.16 µM)	2 (≈ 1.08 µM)	4 (≈ 2.16 µM)	0.14	0.5 (≈ 0.271 µM)	0.84	≤ 0.06	1 (≈ 0.541 µM)	0.5 (≈ 0.271 µM)	≤ 0.06
CNC(CC(C)C)C(=O)NC1C(=O)NC(CC(N)=O)C(=O)NC2C(=O)NC3C(=O)NC(C(=O)NC(C(=O)NCc4ccccc4)c4cc(O)cc(O)c4-c4cc3ccc4O)C(OC3CC(C)(N)C(O)C(C)O3)c3ccc(c(Cl)c3)Oc3cc2cc(c3OC2OC(CO)C(O)C(O)C2OC2CC(C)(NCc3ccc(-c4ccccc4)cc3)C(O)C(C)O2)Oc2ccc(cc2Cl)C1O.Cl (stereo not drawn) [Example 11, N^4-(4-phenylbenzyl)A82846B, benzylamide, HCl salt]	1	1	1	0.11	1	1	≤ 0.06	4	1	≤ 0.06
CNC(CC(C)C)C(=O)NC1C(=O)NC(CC(N)=O)C(=O)NC2C(=O)NC3C(=O)NC(C(=O)NC(C(=O)NCc4ccc(OC)cc4)c4cc(O)cc(O)c4-c4cc3ccc4O)C(OC3CC(C)(N)C(O)C(C)O3)c3ccc(c(Cl)c3)Oc3cc2cc(c3OC2OC(CO)C(O)C(O)C2OC2CC(C)(NCc3ccc(-c4ccccc4)cc3)C(O)C(C)O2)Oc2ccc(cc2Cl)C1O.O=C(O)C(F)(F)F (stereo not drawn) [Example 12, N^4-(4-phenylbenzyl)A82846B, (4-methoxybenzyl) amide, trifluoroacetate salt]	4	1	0.5	0.13	2	1.7	≤ 0.06	2	1	≤ 0.06
CNC(CC(C)C)C(=O)NC1C(=O)NC(CC(N)=O)C(=O)NC2C(=O)NC3C(=O)NC(C(=O)NC(C(=O)NCCCOC)c4cc(O)cc(O)c4-c4cc3ccc4O)C(OC3CC(C)(N)C(O)C(C)O3)c3ccc(c(Cl)c3)Oc3cc2cc(c3OC2OC(CO)C(O)C(O)C2OC2CC(C)(NCc3ccc(-c4ccccc4)cc3)C(O)C(C)O2)Oc2ccc(cc2Cl)C1O (stereo not drawn) [Example 13, N^4-(4-phenylbenzyl)A82846B, (3-methoxypropyl)amide]	0.5 (≈ 0.273 µM)	1 (≈ 0.547 µM)	1 (≈ 0.547 µM)	0.072	1 (≈ 0.547 µM)	1.4	≤ 0.06	1 (≈ 0.547 µM)	2 (≈ 1.09 µM)	≤ 0.06
CCCCc1ccc(CNC2(C)CC(OC3C(Oc4c5cc6cc4Oc4ccc(cc4Cl)C(OC4CC(C)(N)C(O)C(C)O4)C4NC(=O)C(NC(=O)C6NC(=O)C(CC(N)=O)NC(=O)C(NC(=O)C(CC(C)C)NC)C(O)c6ccc(c(Cl)c6)O5)c5ccc(O)c(c5)-c5c(O)cc(O)cc5C(C(=O)NCCc5ccccc5)NC4=O)OC(CO)C(O)C3O)OC(C)C2O)cc1.O=C(O)C(F)(F)F (stereo not drawn) [Example 15, N^4-(4-n-butylbenzyl)A82846B, phenethylamide, trifluoroacetate salt]	2	2	2	0.22	2	1.7	≤ 0.06	2	1	≤ 0.06
CNC(CC(C)C)C(=O)NC1C(=O)NC(CC(N)=O)C(=O)NC2C(=O)NC3C(=O)NC(C(=O)NC(C(=O)NCCc4ccccc4)c4cc(O)cc(O)c4-c4cc3ccc4O)C(OC3CC(C)(N)C(O)C(C)O3)c3ccc(c(Cl)c3)Oc3cc2cc(c3OC2OC(CO)C(O)C(O)C2OC2CC(C)(N)C(O)C(C)O2)Oc2ccc(cc2Cl)C1O.O=C(O)C(F)(F)F (stereo not drawn) [Example 16, A82846B, phenethylamide, trifluoroacetate salt]	0.125	≤ 0.06	≤ 0.06	0.25	≤ 0.06	16	≤ 0.06	0.125	≤ 0.06	–
CNC(CC(C)C)C(=O)NC1C(=O)NC(CC(N)=O)C(=O)NC2C(=O)NC3C(=O)NC(C(=O)NC(C(=O)NCCc4ccccc4)c4cc(O)cc(O)c4-c4cc3ccc4O)C(OC3CC(C)(N)C(O)C(C)O3)c3ccc(c(Cl)c3)Oc3cc2cc(c3OC2OC(CO)C(O)C(O)C2OC2CC(C)(NCc3ccc(-c4ccccc4)cc3)C(O)C(C)O2)Oc2ccc(cc2Cl)C1O (stereo not drawn) [Example 17, N^4-(4-phenylbenzyl)A82846B, phenethylamide]	–	–	–	0.25	–	1.4	–	–	–	–
N^4 -(4-(4-CHLOROPHENYL)BENZYL)A82846B, 5-(TERT-BUTOXYCARBONYLAMINO)PENTYLAMIDE, TRIS(TRIFLUOROACETATE) SALT [Example 25]	–	–	–	5.0	–	2.8	–	–	–	–
N^4 -(4-(4-CHLOROPHENYL)BENZYL)A82846B, 5-AMINOPENTYLAMIDE, TETRA(TRIFLUOROACETATE) SALT [Example 26]	2	1	2	0.44	1	1.7	0.25	–	0.5	0.25
N^4 -(4-phenoxybenzyl)A82846B, n-octylamide, trifluoroacetate salt [Example 6]	4	1	2	0.44	1	1.7	–	4	1	≤ 0.06
N^4 -(4-phenoxybenzyl)A82846B, tert-butylamide, trifluoroacetate salt [Example 5]	2	2	2	0.22	4	4	–	8	4	≤ 0.06
N^4 -(4-phenylbenzyl)A82846B, tert-butylamide, trifluoroacetate salt [Example 4]	2	0.5	–	0.082	0.125	2	≤ 0.06	2	1	≤ 0.06
